The values that follow come from publication PMC8116058, “De novo macrocyclic peptides dissect energy coupling of a heterodimeric ABC transporter by multimode allosteric inhibition” (eLife, 2021).

Each structure is given as a SMILES string. Positions of bridges follow the written chain, without caps; N, C: chain ends. Non-standard residues stand in square brackets, D forms with d. Residues, ends and D or L forms follow the SMILES beside them. *: point of attachment. 5FAM = O=C1OC2(c3ccc(O)cc3Oc3cc(O)ccc32)c2ccc(C(=O)*)cc21; βAla = NCCC(=O)O

One assay concerns TmrAB. In words: Competition of C4F peptide binding by CP^Bs (fluorescence anisotropy). The arrangement: species or system Thermus thermophilus. The conditions noted are these: C4F 50 nM + TmrAB 4 µM + competitor (CP^B 6 µM or C4^ATTO655 10 µM). The source says:
To elucidate the mechanistic basis for the inhibition of ATP hydrolysis and substrate transport, we investigated the effects of CPs on substrate binding. In the first approach, fluorescent CP^Fs were used as reporters in fluorescence polarization. […] In addition, we examined the impact of CP^Bs on ATP binding to TmrAB by scintillation proximity assays (SPA) (Figure 4C). […] Taken together, CPs are high-affinity allosteric inhibitors of TmrAB that leave ATP binding and substrate interaction largely unaffected, while impairing ATP hydrolysis and substrate translocation across the membrane.
Figure 4. […] (A) CP^Fs binding TmrAB is not affected by substrate peptide binding. […] For competition, C4^ATTO655 peptide (2 µM) or R9LQK peptide (200 µM) were added. (B) Binding of C4F peptide is not affected by CP^Bs. C4F peptides (50 nM) were mixed with TmrAB (4 µM), and fluorescence anisotropy was monitored as described in (A). For competition, C4^ATTO655 (10 µM) or CP^Bs (6 µM) were added. […] TmrAB (0.2 µM) were immobilized on SPA beads and incubated with ATP (3 μM, traced with ^3H-ATP) in the presence and absence of CP^Bs (1 µM each) for 30 min on ice. ATP binding was monitored by SPA. Background values were determined after releasing TmrAB complexes from the beads by adding imidazole (200 mM). The background signal in the absence of CP^Bs was set to 0 cpm. […] As this is an equilibrium experiment, this can be rationalized by the fact that CP13 stabilizes the ATP-bound OF conformer. Figure 4—source data 1. Source data for Figure 4.
To determine equilibrium binding constants, CP^Fs (50 nM) were incubated with increasing concentrations of TmrAB-containing or empty liposomes. To probe the conformational selectivity, CP^Fs (50 nM) were mixed with detergent-solubilized IF TmrAB or OF TmrA^EQB. Before, OF TmrA^EQB was nucleotide-trapped by incubation with ATP (1 mM) and MgCl2 (3 mM) in the absence of CP^Fs for 5 min at 45°C. […] For peptide competition studies, RRYC^fluoresceinKSTEL (C4F, 50 nM) were incubated with detergent-solubilized TmrAB (4 µM), CP^Bs (6 µM), or C4^ATTO655 (10 µM). […] Fluorescence anisotropy was analyzed at λex/em of 485/520 nm using a microplate reader (CLARIOstar, BMG LABTECH). Fluorescence anisotropy was calculated using:(1) r=I||−I⊥/I||+2⋅I⊥ with I||: parallel intensity and I⊥: perpendicular intensity. Binding of CP^Fs were fitted by a one-site binding model (Langmuir 1:1) using:(2) Y=Bmax∙[L]/KD+[L] with Y: binding, Bmax: maximal binding, KD: equilibrium dissociation constant, and [L]: ligand concentration. Data represent mean ± SD from three experiments.

Another assay relates to wild-type TmrAB. In words: Nucleotide occlusion, wild-type TmrAB. It is filed as biochemical, Thermus thermophilus. The following applies: 5 min 45°C; for Effect on nucleotide occlusion, wild-type TmrAB: CP^F 4 µM; for Occluded nucleotides, ADP / Occluded nucleotides, ATP: TmrAB 2 µM, CP^F 4 µM or orthovanadate 1 mM, ATP 1 mM traced with [α32P]-ATP, normalized to vanadate-trapped state. The protocol:
Figure 5. […] (A, B) CP6^F (A) or CP13^F (B, 50 nM each) were incubated with increasing concentrations of detergent-solubilized inward-facing TmrAB (in the absence of Mg-ATP) or outward-facing TmrA^EQB, which was trapped with Mg-ATP (1 mM) for 5 min at 45°C as described ([Hofmann et al., 2019]; [Stefan et al., 2020]). Immediately after, the fluorescence anisotropy was assayed at λex/em = 485/520 nm. The difference in fluorescence polarization was normalized to free and fully bound CP^F. Data were fitted by a one-site binding model. […] TmrAB (2 µM each) were mixed with CP^Fs (4 µM), ATP (1 mM, traced with [α^32P]-ATP), and MgCl2 (5 mM) for 5 min at 4°C or 45°C. Cold ATP (10 mM) was added, and freely exchangeable nucleotides were removed by rapid gel filtration. Occluded nucleotides were analyzed by thin layer chromatography and autoradiography. Representative radiograms for independent triplicates are shown. (D) Stably occluded nucleotides, [α^32P]-ATP and [α^32P]-ADP, were quantified by autoradiography. Data were normalized to the vanadate-trapped state. In (A, B, D), mean values ± SD (n = 3) are shown. Figure 5—source data 1. Source Data for Figure 5. Figure 5—figure supplement 1. […] (A) CP^Fs (50 nM each) were incubated with increasing concentrations of detergent-solubilized IF TmrAB in the inward-facing (IF) conformation (absence of Mg-ATP) or TmrA^EQB populated in the outward-facing (OF) conformation, which was trapped in the OF conformation by Mg-ATP (1 mM) after 5 min incubation at 45°C. The difference in fluorescence polarization was normalized to unbound (0%) and 100% bound CP^F. Data were fitted by a one-site binding model. Fluorescence anisotropy was recorded at λex/em = 485/520 nm. […] TmrA^EQB (2 µM) were incubated in the absence and presence of CP^Fs (4 µM each), ATP (1 mM, traced with [α^32P]-ATP), and MgCl2 (5 mM) for 5 min at 4°C or 45°C. Cold ATP (10 mM) was added, and free nucleotides were removed by rapid gel filtration. Occluded nucleotides were analyzed by thin layer chromatography and autoradiography. Representative radiograms for independent triplicates are shown. […] Figure 5—figure supplement 1—source data 1.
We also examined the impact of CP^Fs on the IF-to-OF transition of wild-type TmrAB induced by ATP binding through nucleotide occlusion (stable trapping) as the readout. We induced the IF-to-OF switch with radiotraced [α^32P]-ATP for 5 min at 45°C in the presence and absence of CPs and removed unbound nucleotides by rapid gel filtration. Subsequently, the occluded nucleotides were identified and quantified by thin layer chromatography and autoradiography (Figure 5C, D).
Detergent-solubilized TmrAB (2 µM) were incubated with ATP (1 mM) traced with [α^32P]-ATP (Hartmann Analytic), MgCl2 (5 mM), CP^Fs (4 µM), or orthovanadate (1 mM) for 5 min at 45°C. Cold ATP (10 mM) was added, and unbound nucleotides were removed by rapid gel filtration (Bio-Spin columns P-30, Bio-Rad). ATP (10 mM) was added, and samples were spotted onto polyethyleneimine cellulose plates (Merck Millipore). Thin-layer chromatography was performed using 0.75 M KH2PO4 pH 3.4.

As to `CC[C@H](C)[C@@H]1NC(=O)[C@H]([C@@H](C)O)NC(=O)[C@H](CC(C)C)NC(=O)[C@H](Cc2c[nH]c3ccccc23)NC(=O)[C@H](Cc2ccccc2)NC(=O)[C@H](CC(N)=O)NC(=O)[C@H](CCC(=O)O)NC(=O)[C@H](CC(C)C)NC(=O)[C@H](CS)NC(=O)[C@H](Cc2c[nH]cn2)NC(=O)[C@H](CO)NC(=O)[C@@H](Cc2ccc(O)cc2)NC(=O)CSC[C@@H](C(=O)NCC(=O)N[C@@H](CO)C(=O)NCCC(=O)NCCC(=O)N[C@@H](CCCNC(=N)N)C(=O)N[C@@H](CCCCNC(=O)c2ccc3c(c2)C(=O)OC32c3ccc(O)cc3Oc3cc(O)ccc32)C(N)=O)NC(=O)[C@H](CC(C)C)NC1=O` [CP6] ({CH2CO}-[dY]SHCLENFWLTILCGS[βAla][βAla]RK(5FAM)-NH2; thioether N-14), in the assay with TmrAB, the “Bound C4F peptide, fluorescence anisotropy” value (“Bound C4F peptide” below) was 0.124. Besides, in the assay on wild-type TmrAB, the “Effect on nucleotide occlusion, wild-type TmrAB” value (“Effect on nucleotide occlusion” for short) is listed as “nucleotide occlusion was completely abolished”; the “Occluded nucleotides, ADP” value stood at 2.66%; the “Occluded nucleotides, ATP” value is 6.76%.

With `CC(C)C[C@@H]1NC(=O)[C@H](Cc2ccccc2)NC(=O)CNC(=O)[C@H](CO)NC(=O)[C@H](Cc2ccccc2)NC(=O)[C@H](CC(=O)O)NC(=O)[C@@H]2CCCN2C(=O)[C@H]([C@@H](C)O)NC(=O)[C@@H](Cc2ccc(O)cc2)NC(=O)CSC[C@@H](C(=O)NCC(=O)N[C@@H](CO)C(=O)NCCC(=O)NCCC(=O)N[C@@H](CCCNC(=N)N)C(=O)N[C@@H](CCCCNC(=O)c2ccc3c(c2)C(=O)OC32c3ccc(O)cc3Oc3cc(O)ccc32)C(N)=O)NC(=O)[C@H](C)NC(=O)[C@H](CC(N)=O)NC(=O)[C@H](CCCNC(=N)N)NC(=O)[C@H](CC(C)C)NC(=O)[C@H](Cc2ccccc2)NC(=O)[C@H](C)NC1=O` [CP12] ({CH2CO}-[dY]TPDFSGFLAFLRNACGS[βAla][βAla]RK(5FAM)-NH2; thioether N-16), in the assay on TmrAB, the “Bound C4F peptide” value is reported as 0.128. For the same compound, in the assay on wild-type TmrAB, the “Effect on nucleotide occlusion” value was “nucleotide occlusion was completely abolished”; the “Occluded nucleotides, ADP” value is recorded as 3.67%; the “Occluded nucleotides, ATP” value is reported as 7.52%.

For `CC[C@H](C)[C@@H]1NC(=O)[C@H](Cc2c[nH]c3ccccc23)NC(=O)[C@H](CC(N)=O)NC(=O)[C@H](C)NC(=O)[C@H](CO)NC(=O)[C@@H]2CCCN2C(=O)[C@H](CC(=O)O)NC(=O)[C@@H](Cc2ccc(O)cc2)NC(=O)CSC[C@@H](C(=O)NCC(=O)N[C@@H](CO)C(=O)NCCC(=O)NCCC(=O)N[C@@H](CCCNC(=N)N)C(=O)N[C@@H](CCCCNC(=O)c2ccc3c(c2)C(=O)OC32c3ccc(O)cc3Oc3cc(O)ccc32)C(N)=O)NC(=O)[C@H]([C@@H](C)O)NC(=O)[C@H](CC(C)C)NC(=O)[C@H](CC(C)C)NC(=O)[C@H](C(C)C)NC(=O)[C@H](CC(C)C)NC1=O` [CP13] ({CH2CO}-[dY]DPSANWILVLLTCGS[βAla][βAla]RK(5FAM)-NH2; thioether N-14; C-terminus assumed), the “Bound C4F peptide” value with TmrAB was determined as 0.141. In the assay on wild-type TmrAB, the “Effect on nucleotide occlusion” value is on record as “promoted stable ATP occlusion”; the “Occluded nucleotides, ADP” value was determined as 10.47%; the “Occluded nucleotides, ATP” value worked out at 55.84%.

On to `CC(C)[C@@H]1NC(=O)[C@H](Cc2ccccc2)NC(=O)[C@@H]2CCCN2C(=O)[C@H](CC(N)=O)NC(=O)[C@H](Cc2c[nH]c3ccccc23)NC(=O)[C@H](C(C)C)NC(=O)[C@H](Cc2ccc(O)cc2)NC(=O)[C@H](Cc2ccccc2)NC(=O)[C@@H](Cc2ccc(O)cc2)NC(=O)CSC[C@@H](C(=O)NCC(=O)N[C@@H](CO)C(=O)NCCC(=O)NCCC(=O)N[C@@H](CCCNC(=N)N)C(=O)N[C@@H](CCCCNC(=O)c2ccc3c(c2)C(=O)OC32c3ccc(O)cc3Oc3cc(O)ccc32)C(N)=O)NC(=O)[C@H](CCCCN)NC(=O)[C@H](Cc2ccccc2)NC1=O` [CP14] ({CH2CO}-[dY]FYVWNPFVFKCGS[βAla][βAla]RK(5FAM)-NH2; thioether N-12; C-terminus assumed), for which the “Bound C4F peptide” value in the assay on TmrAB was found to be 0.136. Moreover, in the assay on wild-type TmrAB, the “Effect on nucleotide occlusion” value is “promoted stable ATP occlusion”; the “Occluded nucleotides, ADP” value amounted to 8.19%; the “Occluded nucleotides, ATP” value stood at 88.51%.
